Results taken from ChEMBL document CHEMBL4715853 (J Med Chem, 2020).
pEC50, pIC50: −log10 of the molar value. ≈ marks a conversion by molar mass, not a printed value.

What was measured:
Human coronavirus OC43 [1] = experiment: Antiviral activity against wild type HCoV-OC43 infected in BHK-21 cells incubated for 72 hrs by RT-PCR method; format: functional, cell-based; conditions: Betacoronavirus 1, BHK-21, 72 h
in vitro [2] = conditions: rhesus monkey, LLC-MK2 cells
in vitro [3] = conditions: hamster, BHK-21 cells
in vitro [4] = conditions: hamster, BHK-21 cells; remark: listed apart in the source
SARS-CoV [5] = experiment: Antiviral activity against SARS-CoV BJ-001 infected in African green monkey Vero E6 cells assessed as reduction in virus induced cytopathic effect incubated for 72 hrs by MTS/phenazine methosulfate method; format: functional, organism-based; conditions: Severe acute respiratory syndrome-related coronavirus, BJ-001, Vero C1008, 72 h
[6] = Selectivity ratio of CC50 for HAE cells to EC50 for SARS-CoV BJ-001 infected in African green monkey Vero E6 cells; format: toxicity, Vero C1008
SARS-CoV [7] = experiment: Antiviral activity against SARS-CoV BJ-001 infected in African green monkey Vero E6 cells assessed as reduction in virus induced cytopathic effect by visual observation; format: functional, organism-based; conditions: Severe acute respiratory syndrome-related coronavirus, BJ-001, Vero C1008
Human coronavirus OC43 [8] = experiment: Antiviral activity against HCoV-OC43 infected in BALB/c mouse assessed as protection against virus-induced lethal infection at 15 mg/kg, ip administered for 14 days and measured up to 20 days; format: functional; conditions: time day <=20
[9] = Cytotoxicity against African green monkey Vero E6 cells incubated for 72 hrs by MTS assay; format: cell-based, Vero C1008; conditions: chlorocebus sabaeus
[10] = Antiviral activity against HCoV-NL63 infected in Rhesus macaque LLC-MK2 cells incubated for 72 hrs by RT-PCR method; format: functional, cell-based; conditions: Human coronavirus NL63, LLC-MK2, 72 h
in vitro [11] = conditions: rhesus monkey, LLC-MK2 cells; remark: listed apart in the source
[12] = Inhibition of SARS Coronavirus helicase pp1ab domain assessed as reduction in helicase activity using DT20Cy3/Release BHQ oligomers by FRET-based assay; design: species or system Severe acute respiratory syndrome-related coronavirus
[13] = Inhibition of SARS Coronavirus helicase pp1ab domain assessed as reduction in ATPase activity by phosphomolybdate-malachite green assay; design: species or system Severe acute respiratory syndrome-related coronavirus
SARS-CoV [14] = experiment: Antiviral activity against SARS-CoV infected in African green monkey Vero E6 cells assessed as reduction in viral replication by ELISA; format: functional, organism-based; conditions: Severe acute respiratory syndrome-related coronavirus, Vero C1008
[15] = Cytotoxicity against African green monkey Vero E6 cells incubated for 2 days by the MTS assay; format: cell-based, Vero C1008; conditions: chlorocebus sabaeus, time 2 day
[16] = Selectivity index, ratio of CC50 for African green monkey Vero E6 cells to EC50 for SARS-CoV infected in African green monkey Vero E6 cells; format: toxicity, Vero C1008; conditions: read-out: Ratio CC50/EC50
SARS-CoV-2 [17] = experiment: Antiviral activity against SARS-CoV-2 infected in African green monkey Vero cells incubated for 48 hrs by RT-PCR method; format: functional, organism-based; conditions: Severe acute respiratory syndrome coronavirus 2, Vero
SARS-CoV-2 [18] = experiment: Antiviral actvity against SARS-CoV2 infected in human assessed as improvement rate of chest at 400 mg, po administered twice daily cotreated with 100 mg ritonavir and measured after 14 days by computed tomography; format: functional, Severe acute respiratory syndrome coronavirus 2; conditions: time 14 day
[19] = Cytotoxicity against African green monkey Vero E6 cells incubated for 3 days by the MTS assay; format: cell-based, Vero C1008; conditions: chlorocebus sabaeus, time 3 day
[20] = Cytotoxicity against human Huh-7 cells incubated for 1 hr by MTS assay; format: cell-based
[21] = Toxicity in human infected with SARS-CoV2 assessed as adverse events at 400 mg, po administered twice daily cotreated with 100 mg ritonavir and measured after 14 days; format: organism-based; conditions: in vivo, 336 h, time 14 day
SARS-CoV [22] = experiment: Antiviral activity against SARS-CoV by cell-based assay; format: functional; conditions: Severe acute respiratory syndrome-related coronavirus
[23] = Cytotoxicity against HAE cells by CellTiter-Glo assay; format: cell-based; conditions: human
Human coronavirus 229E = experiment: Antiviral activity against HCoV-229E infected in human Huh7 cells assessed as reduction in virus induced cytopathic effect incubated for 6 days by cellTiter-Glo assay; format: functional, organism-based; conditions: Huh-7, 144 h
Human coronavirus OC43 [24] = experiment: Antiviral activity against wild type HCoV-OC43 infected in human Huh-7 cells preincubated for 1 hrs followed by overlaying with reduced-serum Medium and measured after 72 hrs ELISpot assay; format: functional, cell-based; conditions: Betacoronavirus 1, Huh-7
SARS-CoV [25] = experiment: Antiviral activity against SARS-CoV expressing green fluorescent protein infected in human airway epithelial cells incubated for 48 hrs by RT-PCR method; format: functional, organism-based; conditions: Severe acute respiratory syndrome-related coronavirus, HAE
Huh-7 = experiment: Cytotoxicity against human Huh7 cells incubated for 6 days by cellTiter-Glo assay; format: functional; conditions: Huh-7, 144 h, time 6 day
[26] = Cytotoxicity against human Huh-7 cells by CellTiter-Glo assay; format: cell-based
[27] = Cytotoxicity against African green monkey Vero E6 cells by the CCK8 assay; format: cell-based, Vero C1008; conditions: chlorocebus sabaeus

Row | Compound | pEC50 (Human coronavirus OC43 [1]) | selectivity ratio (in vitro [2]) | CC50 at 72 h (in vitro [3]) [nM] | selectivity ratio (in vitro [4]) | pEC50 [10] | CC50 at 72 h (in vitro [11]) [nM] | further results
1 | O[C@H]1[C@H]2c3cc4c(cc3CN3CCC(=C[C@@H]1O)[C@H]23)OCO4 [LYCORINE] | 6.82 | 8.11 | 4370 | 29.1 | 6.33 | 3810 | pIC50 (SARS-CoV [5]): 7.80; selectivity ratio [6]: 954; pIC50 (SARS-CoV [7]): 7.80; Activity (Human coronavirus OC43 [8]): 83.3%; CC50 at 72 h [9]: 14900 nM
2 | Cc1nc(I)c(C(=O)O)c(C23OC4(O)CC(O)(CC(O)(C4)O2)O3)c1O | – | – | – | – | – | – | pIC50 [12]: 5.15; pIC50 [13]: 6.27
3 | C/C=C(\C)C(=O)O[C@H]1[C@H](OC(C)=O)[C@]2(CO)[C@H](O)C[C@]3(C)C(=CC[C@@H]4[C@@]5(C)CC[C@H](O[C@@H]6O[C@H](C(=O)O)[C@@H](O[C@@H]7O[C@H](CO)[C@@H](O)[C@H](O)[C@H]7O)[C@H](O)[C@H]6O[C@@H]6O[C@H](CO)[C@@H](O)[C@H](O)[C@H]6O)[C@](C)(CO)[C@@H]5CC[C@]43C)[C@@H]2CC1(C)C [ESCIN IA] | – | – | – | – | – | – | pIC50 (SARS-CoV [14]): 5.22; CC50 at 48 h [15]: 25000 nM; selectivity ratio [16]: 2.5
4 | CCN(CCO)CCCC(C)Nc1ccnc2cc(Cl)ccc12 (configuration not stated) [HYDROXYCHLOROQUINE] | – | – | – | – | – | – | pIC50 (SARS-CoV-2 [17]): 6.14
5 | COc1c(C)c2c(c(O)c1C/C=C(\C)CCC(=O)OCCN1CCOCC1)C(=O)OC2 [MYCOPHENOLATE MOFETIL] | 5.80 | 13 | 3430 | 2.2 | 6.64 | 3010 | –
6 | CC[C@H]1CN2CCc3cc(OC)c(OC)cc3[C@@H]2C[C@@H]1C[C@H]1NCCc2cc(OC)c(OC)cc21 [EMETINE] | 6.52 | 2.5 | 2690 | 9 | 5.84 | 3630 | –
7 | COc1c(C)c2c(c(O)c1C/C=C(\C)CCC(=O)O)C(=O)OC2 [MYCOPHENOLIC ACID] | 5.71 | 19 | 3550 | 1.8 | 6.74 | 3440 | –
8 | Nc1ccc(/N=N/c2ccccc2)c(N)n1 [PHENAZOPYRIDINE] | 5.72 | > 9.9 | > 20000 | > 10 | 5.69 | > 20000 | –
9 | Cc1cccc(C)c1OCC(=O)N[C@@H](Cc1ccccc1)[C@@H](O)C[C@H](Cc1ccccc1)NC(=O)[C@H](C(C)C)N1CCCNC1=O [LOPINAVIR] | – | – | – | – | – | – | Activity (SARS-CoV-2 [18]): 62.2%; CC50 at 72 h [19]: > 32000 nM; CC50 at 1 h [20]: > 37600 nM; Activity [21]: 55.6%
10 | C[C@@H]1O[C@@H](O[C@H]2[C@H](O[C@H]3CC[C@@]4(C)[C@@H](CC[C@]5(C)[C@@H]4CC=C4[C@@H]6CC(C)(C)CC[C@]6(C(=O)O)CC[C@]45C)[C@]3(C)CO)OC[C@H](O)[C@@H]2O)[C@H](O)[C@H](O)[C@H]1O [ALPHA-HEDERIN] | – | – | – | – | – | – | MIC (SARS-CoV [22]): 10 µM (≈ 7.51 µg/mL)
11 | CCC(CC)COC(=O)[C@H](C)N[P@](=O)(OC[C@H]1O[C@@](C#N)(c2ccc3c(N)ncnn23)[C@H](O)[C@@H]1O)Oc1ccccc1 | – | – | – | – | – | – | CC50 [23]: > 10000 nM; pEC50 (Human coronavirus 229E): 7.62; pEC50 (Human coronavirus OC43 [24]): 6.82; pEC50 (SARS-CoV [25]): 7.22; CC50 (Huh-7): > 10000 nM; CC50 [26]: > 10000 nM; CC50 [27]: 100000 nM
12 | NC(=O)c1ncn([C@@H]2O[C@H](CO)[C@@H](O)[C@H]2O)n1 [RIBAVIRIN] | – | – | – | – | – | – | CC50 [27]: > 400000 nM
13 | COC(=O)[C@H]1[C@H]2C[C@@H]3c4[nH]c5cc(OC)ccc5c4CCN3C[C@H]2C[C@@H](OC(=O)c2cc(OC)c(OC)c(OC)c2)[C@@H]1OC [RESERPINE] | – | – | – | – | – | – | pIC50 (SARS-CoV [14]): 5.47; CC50 at 48 h [15]: 25000 nM; selectivity ratio [16]: 7.3
